Assay results from PMC9379584 (iScience, 2022).
Values joined by “and” are separate entries in the source; they are usually repeats but may differ in a detail not shown here. Equal values may be shown once. “Also recorded” adds a separate entry of the source. Read-outs that look alike come from different tables or passages of the source.

Key:
INS-1E cells [1] = test: HTRF cAMP assay in INS-1E cells; type: cell-based, rat; conditions: for Emax, inhibition of cAMP production: normalized to DA's efficacy in parental INS-1E
α2A-AR [2] = biological target: T1, α2A-AR (Rattus norvegicus, UniProt P22909); type: cell-based; conditions: nanoBRET
T1 sequence (P22909 1-465): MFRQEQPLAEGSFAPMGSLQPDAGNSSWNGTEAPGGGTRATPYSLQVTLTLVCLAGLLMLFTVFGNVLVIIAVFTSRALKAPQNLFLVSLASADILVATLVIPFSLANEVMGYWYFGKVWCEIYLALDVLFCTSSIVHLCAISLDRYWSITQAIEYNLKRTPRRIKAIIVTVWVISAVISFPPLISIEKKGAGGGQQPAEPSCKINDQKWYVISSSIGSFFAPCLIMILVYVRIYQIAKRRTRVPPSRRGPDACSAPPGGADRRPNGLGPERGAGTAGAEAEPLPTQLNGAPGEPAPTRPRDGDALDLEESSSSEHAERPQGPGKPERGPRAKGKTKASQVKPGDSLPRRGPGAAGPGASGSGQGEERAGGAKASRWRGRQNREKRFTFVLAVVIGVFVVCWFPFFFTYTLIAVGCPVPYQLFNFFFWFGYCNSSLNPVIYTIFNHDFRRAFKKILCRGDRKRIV

[3] = system: α2A-AR KO INS-1E-derived cell line; test: HTRF cAMP assay in α2A-AR KO INS-1E-derived cells; type: cell-based, rat; conditions: for IC50: read-out: IC50, inhibition of cAMP production; for IC50 / Emax, inhibition of cAMP production: α2A-AR KO; for Emax, inhibition of cAMP production: normalized to DA's efficacy in parental INS-1E
INS-1E cells [4] = conditions: cited from earlier work
mouse pancreatic islets [5] = conditions: cited from earlier work
α2A-AR [6] = biological target: T1, α2A-AR; test: cell-based; conditions: for EC50: nanoBRET; for Emax: HEK-293T
D2R [7] = biological target: T2, D2R (Homo sapiens, UniProt P14416); conditions: nanoBRET
Target sequence in this assay (P14416 whole entry): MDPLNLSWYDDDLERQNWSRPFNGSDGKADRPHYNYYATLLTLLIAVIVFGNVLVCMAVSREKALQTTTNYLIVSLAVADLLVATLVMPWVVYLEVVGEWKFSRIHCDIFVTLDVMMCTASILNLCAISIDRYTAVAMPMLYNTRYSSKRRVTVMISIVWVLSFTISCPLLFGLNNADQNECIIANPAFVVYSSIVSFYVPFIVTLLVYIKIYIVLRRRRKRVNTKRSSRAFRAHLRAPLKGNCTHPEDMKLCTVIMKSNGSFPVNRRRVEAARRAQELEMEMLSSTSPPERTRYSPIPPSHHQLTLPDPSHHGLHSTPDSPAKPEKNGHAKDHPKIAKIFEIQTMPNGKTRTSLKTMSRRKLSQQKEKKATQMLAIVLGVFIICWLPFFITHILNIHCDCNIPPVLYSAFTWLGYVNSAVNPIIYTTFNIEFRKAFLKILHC

D2R [8] = biological target: T2, D2R; conditions: cited from earlier work
Target sequence in this assay (P14416 whole entry): as above
Target sequence in this assay (P32121 whole entry partner): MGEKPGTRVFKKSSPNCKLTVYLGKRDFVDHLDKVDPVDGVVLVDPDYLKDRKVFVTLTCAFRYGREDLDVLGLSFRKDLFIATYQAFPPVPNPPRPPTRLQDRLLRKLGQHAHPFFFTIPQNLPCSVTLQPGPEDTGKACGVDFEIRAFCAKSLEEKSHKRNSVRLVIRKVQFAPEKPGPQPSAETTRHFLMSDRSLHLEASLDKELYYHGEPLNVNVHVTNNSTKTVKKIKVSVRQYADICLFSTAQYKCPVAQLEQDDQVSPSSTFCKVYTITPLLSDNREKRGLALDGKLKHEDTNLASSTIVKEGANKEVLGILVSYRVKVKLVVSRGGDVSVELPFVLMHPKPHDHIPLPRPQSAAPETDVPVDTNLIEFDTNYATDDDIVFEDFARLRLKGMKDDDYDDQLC

D2R [9] = biological target: T2, D2R; test: cell-based; conditions: for EC50: nanoBRET; for Emax: HEK-293T
Target sequence in this assay (P14416 whole entry): as the sequence (P14416 whole entry) above

mouse pancreatic islets [10] = test: Glucose-stimulated insulin secretion; type: cell-based; conditions: for IC50: Mus musculus, Pancreatic islet, 1.5 h
D2R [11] = biological target: T2, D2R
Target sequence in this assay (P14416 whole entry): as above

INS-1E cells [12] = test: Glucose-stimulated insulin secretion; type: cell-based, rat
α2A-AR [13] = biological target: T1, α2A-AR; type: cell-based; conditions: nanoBRET; remark: listed apart in the source
human islets [14] = test: Glucagon secretion from human islets; type: cell-based; conditions: 25 mM glucose, 1 h
α2A-AR [15] = test: α2A-AR internalization; type: cell-based; conditions: data not shown
D2R [16] = biological target: T2, D2R; test: Radioligand competition binding, [3H]-N-methylspiperone, HEK-293 membranes
Target sequence in this assay (P14416 whole entry): as above

human islets [17] = test: Insulin secretion from human islets; type: cell-based; conditions: 10 pM and 100 pM, versus vehicle
β1-AR = conditions: ref Millan et al., 2002; cited from earlier work
mouse islets = test: Glucagon secretion from mouse islets; type: cell-based; conditions: 25 mM glucose, 1 h
[18] = system: α2A-AR KO INS-1E-derived cell line; test: GSIS in α2A-AR knockout INS-1E-derived cell line; type: cell-based, rat
D2R [19] = biological target: T2, D2R; test: cell-based
Target sequence in this assay (P14416 whole entry): as above
Target sequence in this assay (P32121 whole entry partner): as the sequence (P32121 whole entry partner) above

[20] = α2A-AR KO versus parental INS-1E
[21] = read-out: IC50, inhibition of GSIS, ref Aslanoglou et al. (2021)
[22] = read-out: IC50, inhibition of GSIS, ref Aslanoglou et al., 2021
[23] = EC50, Gαi2 recruitment to D2R, Gαi2
[24] = EC50, Gαi3 recruitment to D2R, Gαi3
[25] = EC50, GαoA recruitment to D2R, GαoA
[26] = percentage of recruitment relative to DA

Which results are given for `NCCc1ccc(O)c(O)c1` [DA, dopamine]?
Emax, inhibition of cAMP production (INS-1E cells [1]): 100.00 % DA; β-arrestin1 recruitment to α2A-AR (α2A-AR [2]): negligible recruitment; IC50 [3]: 1500 nM; increase of potency in diminishing cAMP by α2A-AR KO [3, 20]: 1.7 fold; reduction of efficacy in lowering cAMP by α2A-AR KO [3, 20]: 57% and 57.2%; Emax, inhibition of cAMP production [3]: 57.15 [46.22–88.79] % DA; IC50 (INS-1E cells [4]; [21]): 1490 nM; IC50 (INS-1E cells [4]; [22]): 1500 nM; pIC50, inhibition of GSIS (INS-1E cells [4]; ref Aslanoglou et al. (2021)): 5.83; IC50 (mouse pancreatic islets [5]; [21]): 1300 nM; IC50 (mouse pancreatic islets [5]; [22]): 1300 nM; pIC50, inhibition of GSIS (mouse pancreatic islets [5]; ref Aslanoglou et al. (2021)): 5.89; EC50 (α2A-AR [6]; EC50, Gαi2 recruitment to α2A-AR, Gαi2): 1040 nM; EC50 (α2A-AR [6]; EC50, Gαi3 recruitment to α2A-AR, Gαi3): 1030 nM; EC50 (α2A-AR [6]; EC50, GαoA recruitment to α2A-AR, GαoA): 836 nM; EC50 (α2A-AR [6]; EC50, GαoB recruitment to α2A-AR, GαoB): 945 nM; EC50 (α2A-AR [6]; EC50, Gαz recruitment to α2A-AR, Gαz): 666 nM; EC50 (α2A-AR [6]; pEC50, GαoB recruitment to α2A-AR, GαoB): 933 nM

For `NC[C@H](O)c1ccc(O)c(O)c1` [NE, norepinephrine], which “β-arrestin1 recruitment to D2R” value (D2R [7]) is on record?
The value was “negligible recruitment”.

And the “pEC50, β-arrestin2 recruitment to D2R” value (D2R [8])?
Its value is 4.78 (16745.32) [3.62–5.93].

What about the “β-arrestin1 recruitment to α2A-AR” value (α2A-AR [2]) of the same compound?
The value was “negligible recruitment”.

What about the EC50 (D2R [9]; [23]) of the same compound?
Its EC50 is 25.3 nM.

What about the EC50 (D2R [9]; [24]) of the same compound?
The EC50 was 32600 nM.

What about the EC50 (D2R [9]; [25]) of the same compound?
Its EC50 is 3350 nM.

What about the EC50 (D2R [9]; EC50, GαoB recruitment to D2R, GαoB) of the same compound?
The EC50 was 139 nM.

With `CC(C)C[C@H]1C(=O)N2CCC[C@H]2[C@]2(O)O[C@](NC(=O)[C@@H]3C=C4c5cccc6[nH]c(Br)c(c56)C[C@H]4N(C)C3)(C(C)C)C(=O)N12` [Bromocriptine] as the compound, how does the IC50 (mouse pancreatic islets [10]; read-out: IC50, inhibition of GSIS) read?
Its IC50 is 15.8 nM.

And the IC50 (mouse pancreatic islets [10]; read-out: pIC50, inhibition of GSIS (converted))?
Its IC50 is 15.8 nM.

And the “effect on insulin secretion” value (mouse pancreatic islets [10]; mouse islets, picomolar concentrations)?
Its value is “insufficient to modify insulin secretion”.

What about the “higher potency than DA, Gαi1 recruitment to D2R” value (D2R [11]; EC50 ratio versus DA) of the same compound?
Its value is 4.5 fold.

What about the “higher potency than NE, Gαi1 recruitment to D2R” value (D2R [11]; EC50 ratio versus NE) of the same compound?
Its value is 47.2 fold.

And the “Emax, Gαi1 recruitment to D2R” value (D2R [11]; [26])?
The value was 60.03 [46.83–73.23] %.

What about the “Emax, GαoA recruitment to D2R” value (D2R [11]; [26]) of the same compound?
The value was 109.13 [71.26–147.01] %.

What about the “Emax, GαoB recruitment to D2R” value (D2R [11]; [26]) of the same compound?
The value was 96.05 [65.07–127.03] %.

What about the “Emax, Gαz recruitment to D2R” value (D2R [11]; [26]) of the same compound?
The value was 66.51 [20.68–112.34] %.

And the “Emax, inhibition of cAMP production” value (INS-1E cells [1])?
The value was 35.10 [33.09–38.47] % DA.

And the “Emax, inhibition of cAMP production” value (INS-1E cells [1]; listed as bromocriptine)?
Its value is 35.1 % DA.

What about the IC50 (INS-1E cells [1]; read-out: IC50, inhibition of cAMP production, forskolin 5 μM, 1 h) of the same compound?
Its IC50 is 10.3 nM.

And the “decrease of efficacy at reducing GSIS versus bromocriptine alone” value (INS-1E cells [12]; co-treatment with sulpiride (100 nM))?
The value was 66.7%.

What about the “reduction of efficacy of GSIS inhibition versus bromocriptine alone” value (INS-1E cells [12]; co-treatment with yohimbine (100 nM)) of the same compound?
Its value is 66.5%.

What about the IC50 (INS-1E cells [12]; read-out: IC50, inhibition of GSIS, INS-1E, 20 mM glucose, 90 min) of the same compound?
Its IC50 is 14 nM.

And the “β-arrestin2 recruitment to α2A-AR” value (α2A-AR [13])?
Its value is “does not result in measurable recruitment; also recorded: Neither bromocriptine nor DA stimulation of α2A-AR caused significant β-arrestin2 receptor recruitment”.

And the “β-arrestin1 recruitment to D2R” value (D2R [7])?
The value was “negligible recruitment”.

And the “decrease in secreted glucagon” value (human islets [14]; 10 pM)?
The value was 30.8%.

What about the “decrease in secreted glucagon” value (human islets [14]; 100 pM) of the same compound?
Its value is 36.7%.

And the “β-arrestin1 recruitment to α2A-AR” value (α2A-AR [2])?
Its value is “negligible recruitment”.

What about the “loss of potency in decreasing cAMP by α2-AR KO” value ([3]; KO versus unmodified cells) of the same compound?
Its value is roughly 120 fold.

And the IC50 [3]?
Its IC50 is 1200 nM.

And the “Emax, inhibition of cAMP production” value [3]?
Its value is 56.28 [5.32–107.26] % DA.

What about the EC50 (D2R [9]; EC50, Gαi1 recruitment to D2R, Gαi1) of the same compound?
Its EC50 is 104 nM.

What about the EC50 (D2R [9]; [23]) of the same compound?
The EC50 was 21.6 nM.

What about the EC50 (D2R [9]; [24]) of the same compound?
Its EC50 is 84.3 nM.

What about the EC50 (D2R [9]; [25]) of the same compound?
Its EC50 is 0.0767 nM and 0.08 nM.

And the EC50 (D2R [9]; EC50, Gαz recruitment to D2R, Gαz)?
Its EC50 is 4.3 nM.

What about the Emax (D2R [9]; read-out: Emax, Gαi2 recruitment to D2R, percentage of recruitment relative to DA) of the same compound?
The Emax was 89.3%.

What about the Emax (D2R [9]; read-out: Emax, GαoA recruitment to D2R, percentage of recruitment relative to DA) of the same compound?
The Emax was 109%.

What about the Emax (D2R [9]; read-out: Emax, GαoB recruitment to D2R, percentage of recruitment relative to DA) of the same compound?
The Emax was 96.1%.

What about the Emax (D2R [9]; read-out: Emax, Gαz recruitment to D2R, percentage of recruitment relative to DA) of the same compound?
The Emax was 66.5%.

What about the EC50 (D2R [9]; pEC50, GαoA recruitment to D2R, GαoA) of the same compound?
The EC50 was 0.0759 nM.

What about the EC50 (D2R [9]; pEC50, GαoB recruitment to D2R, GαoB) of the same compound?
Its EC50 is 0.269 nM.

What about the “internalization of α2A-AR following stimulation” value (α2A-AR [15]) of the same compound?
The value was “no detectable internalization”.

What about the Ki (D2R [16]) of the same compound?
The Ki was 43.2 nM.

What about the “effect on insulin secretion” value (human islets [17]) of the same compound?
Its value is “not significantly altered; also recorded: did not significantly alter”.

And the “affinity for β1-AR, lower compared with D2R” value (β1-AR)?
The value was roughly 120 fold.

And the “decrease in secreted glucagon” value (mouse islets; 10 pM)?
Its value is 26.7%.

What about the “decrease in secreted glucagon” value (mouse islets; 100 pM) of the same compound?
Its value is 29.7%.

And the IC50 ([18]; read-out: IC50, inhibition of GSIS, α2A-AR KO INS-1E-derived cells)?
Its IC50 is 6.67 nM.

What about the “reduction of efficacy of GSIS inhibition versus parental INS-1E cells” value ([18]; α2A-AR KO) of the same compound?
Its value is 80.6%.

What about the Emax (α2A-AR [6]; read-out: Emax, Gαi1 recruitment to α2A-AR) of the same compound?
The Emax was 15.4%.

And the Emax (α2A-AR [6]; read-out: Emax, Gαi2 recruitment to α2A-AR)?
The Emax was 43.8%.

What about the Emax (α2A-AR [6]; read-out: Emax, Gαi3 recruitment to α2A-AR) of the same compound?
The Emax was 12.7%.

What about the Emax (α2A-AR [6]; read-out: Emax, GαoA recruitment to α2A-AR) of the same compound?
Its Emax is 43%.

What about the Emax (α2A-AR [6]; read-out: Emax, GαoB recruitment to α2A-AR) of the same compound?
Its Emax is 40.3%.

And the Emax (α2A-AR [6]; read-out: Emax, Gαz recruitment to α2A-AR)?
Its Emax is 21.2%.

What about the EC50 (D2R [19]) of the same compound?
The EC50 was 286 nM.

And the Emax (D2R [19]; read-out: Emax, β-arrestin2 recruitment to D2R)?
The Emax was 60.9%.
